Results on 13 compounds are retold here after ChEMBL document CHEMBL4330155, “NaBr-Induced Production of Brominated Azaphilones and Related Tricyclic Polyketides by the Marine-Derived Fungus Penicillium janthinellum HK1-6” (J Nat Prod, 2019).

Each structure is given as a SMILES string. ≈ marks a conversion by molar mass, not a printed value. Where only a bound is given, the exact number is not on record here.

For one assay, the system named is SMMC-7721. Description: Cytotoxicity again human SMMC7721 cells by MTT method. The class given is cell-based. For orientation: Tetrazolium assays rely on reduction of a dye to a coloured formazan, in cell work by metabolically active cells.
A further assay concerns Enterococcus faecalis. Description: microbe, parasite or virus in culture. The class given is functional. The following applies: ATCC 51299.
The test system of assay [1] is Staphylococcus aureus. Description: Antibacterial activity against Staphylococcus aureus ATCC 33591 by XTT dye based assay. In kind it is functional.
A further assay concerns Enterococcus faecium. The assay can be described thus: Antibacterial activity against Enterococcus faecium ATCC 35667 by XTT dye based assay. In kind it is functional.
In a further assay the test system is Escherichia coli. The assay can be described thus: microbe, parasite or virus in culture. The class given is functional. The note with it: ATCC 25922.
Assay [2] relates to Staphylococcus aureus. The assay can be described thus: Antibacterial activity against Staphylococcus aureus ATCC 43300 by XTT dye based assay. In kind it is functional.
Assay [3] deals with Staphylococcus aureus. The assay can be described thus: Antibacterial activity against Staphylococcus aureus ATCC 29213 by XTT dye based assay. In kind it is functional.
Assay [4] concerns Staphylococcus aureus. The assay can be described thus: Antibacterial activity against Staphylococcus aureus ATCC 25923 by XTT dye based assay. In kind it is functional.

Description for Enterococcus faecalis: Antibacterial activity against Enterococcus faecalis ATCC 51299 by XTT dye based assay
Description for Escherichia coli: Antibacterial activity against Escherichia coli ATCC 25922 by XTT dye based assay

What is called IC50 is the midpoint of a concentration-inhibition curve. Lower therefore signals greater potency in that assay. In the case of `Cc1cccc(O)c1C1=CC2=CC(=O)[C@](C)(O)C(=O)C2=CO1`, the IC50 with SMMC-7721 is above 10 µM.

The compound `Cc1cccc(O)c1C1=CC2=C(Cl)C(=O)[C@@](C)(O)C(=O)C2=CO1` came in with an IC50 in the assay with SMMC-7721 above 10 µM.

`CCCCCC[C@H](C)/C=C(\C)C(=O)O[C@@]1(C)C(=O)c2c(cc(O)c3c2C[C@H](O)C[C@]3(C)O)[C@](C)(O)C1=O`: the MIC in the assay with Enterococcus faecalis was 12.5 µg/mL (≈ 24.2 µM); against Staphylococcus aureus [1], 3.13 µg/mL (≈ 6.06 µM); against Enterococcus faecium, 25 µg/mL (≈ 48.4 µM); against Escherichia coli, above 50 µg/mL; against Staphylococcus aureus [2] it was 12.5 µg/mL (≈ 24.2 µM); with Staphylococcus aureus [3], 12.5 µg/mL (≈ 24.2 µM). In the assay on Staphylococcus aureus [4], the MIC is above 50 µg/mL.

In the assay with SMMC-7721, `CCCCCC[C@H](C)/C=C(\C)C(=O)O[C@@]1(C)C(=O)C=C2C=C(c3c(C)cccc3O)OC=C2C1=O` came in with an IC50 above 10 µM.

As to `CCCCCC[C@H](C)/C=C(\C)C(=O)O`, the MIC against Enterococcus faecalis was above 50 µg/mL; with Staphylococcus aureus [1], 25 µg/mL (≈ 126 µM); against Enterococcus faecium it was above 50 µg/mL; against Escherichia coli, above 50 µg/mL; against Staphylococcus aureus [2] it was 25 µg/mL (≈ 126 µM); in the assay on Staphylococcus aureus [3], above 50 µg/mL. This compound also showed an MIC in the assay on Staphylococcus aureus [4] above 50 µg/mL.

With `CCCCCC[C@H](C)/C=C(\C)C(=O)O[C@@]1(C)C(=O)C2=COC(C3=C(C)CC(O)CC3=O)=CC2=C(Cl)C1=O` (some centres not stated), in the assay on SMMC-7721, the IC50 is above 10 µM.

`CCCCCC[C@H](C)/C=C(\C)C(=O)O[C@@]1(C)C(=O)C=C2C=C(C3=C(C)C[C@@H](O)CC3=O)OC=C2C1=O` displayed an IC50 in the assay on SMMC-7721 above 10 µM.

As for `CCCCCC[C@H](C)/C=C(\C)C(=O)O[C@]1(C)C(=O)C2=COC(C3=C(C)C[C@@H](O)CC3=O)=CC2=C(Br)C1=O`, the MIC was 25 µg/mL (≈ 43.4 µM) in the assay on Enterococcus faecalis; 12.5 µg/mL (≈ 21.7 µM) against Staphylococcus aureus [1]; 25 µg/mL (≈ 43.4 µM) in the assay on Enterococcus faecium; above 50 µg/mL in the assay with Escherichia coli; 50 µg/mL (≈ 86.9 µM) against Staphylococcus aureus [2]; 25 µg/mL (≈ 43.4 µM) in the assay with Staphylococcus aureus [3]. Further, the MIC in the assay with Staphylococcus aureus [4] worked out at 12.5 µg/mL (≈ 21.7 µM). In the assay with SMMC-7721, this compound yielded an IC50 above 10 µM.

Consider `CCCCCC[C@H](C)/C=C(\C)C(=O)O[C@@]1(C)C(=O)c2c(cc(O)c3c(C)cccc23)[C@](C)(O)C1=O`, for which the MIC in the assay on Enterococcus faecalis, against Staphylococcus aureus [1], against Enterococcus faecium, against Escherichia coli, against Staphylococcus aureus [2] and with Staphylococcus aureus [3] was above 50 µg/mL in each case. Besides, the MIC with Staphylococcus aureus [4] is above 50 µg/mL.

Turning to `CCCCCC[C@H](C)/C=C(\C)C(=O)O[C@@]1(C)C(=O)C2=COC(c3c(C)cccc3O)=CC2=C(Cl)C1=O`, in the assay on SMMC-7721, the IC50 was above 10 µM.

For the compound `CCCCCC[C@H](C)/C=C(\C)C(=O)O[C@]1(C)C(=O)C2=COC(c3c(C)cccc3O)=CC2=C(Br)C1=O`, the MIC against Enterococcus faecalis was 3.13 µg/mL (≈ 5.61 µM); against Staphylococcus aureus [1], 3.13 µg/mL (≈ 5.61 µM); against Enterococcus faecium it was 12.5 µg/mL (≈ 22.4 µM); in the assay on Escherichia coli, above 50 µg/mL; with Staphylococcus aureus [2], 12.5 µg/mL (≈ 22.4 µM); with Staphylococcus aureus [3], 12.5 µg/mL (≈ 22.4 µM). Moreover, the MIC in the assay on Staphylococcus aureus [4] was determined as 6.25 µg/mL (≈ 11.2 µM). In the assay on SMMC-7721, this compound gave an IC50 above 10 µM.

`Cc1onc(-c2ccccc2)c1C(=O)N[C@@H]1C(=O)N2[C@@H]1SC(C)(C)[C@@H]2C(=O)[O-].[Na+]`: the MIC in the assay with Enterococcus faecalis was above 50 µg/mL; in the assay on Staphylococcus aureus [1], above 50 µg/mL; against Enterococcus faecium it was above 50 µg/mL; against Escherichia coli it was above 50 µg/mL; against Staphylococcus aureus [2] it was above 50 µg/mL; in the assay on Staphylococcus aureus [3], 0.39 µg/mL. For the same compound, the MIC in the assay on Staphylococcus aureus [4] is 0.2 µg/mL.

With `CN[C@H](CC(C)C)C(=O)N[C@H]1C(=O)N[C@@H](CC(N)=O)C(=O)N[C@H]2C(=O)N[C@H]3C(=O)N[C@H](C(=O)N[C@H](C(=O)O)c4cc(O)cc(O)c4-c4cc3ccc4O)[C@H](O)c3ccc(c(Cl)c3)Oc3cc2cc(c3O[C@@H]2O[C@H](CO)[C@@H](O)[C@H](O)[C@H]2O[C@H]2C[C@](C)(N)[C@H](O)[C@H](C)O2)Oc2ccc(cc2Cl)[C@H]1O.Cl` [VANCOMYCIN HYDROCHLORIDE], the MIC in the assay with Enterococcus faecalis was above 50 µg/mL; against Staphylococcus aureus [1], 1.56 µg/mL; against Enterococcus faecium, 0.78 µg/mL; with Escherichia coli, above 50 µg/mL; in the assay with Staphylococcus aureus [2], 0.78 µg/mL; in the assay with Staphylococcus aureus [3] it was 0.78 µg/mL. For the same compound, the MIC in the assay on Staphylococcus aureus [4] came out at 0.78 µg/mL.
